For assay [1], the system named is p53, Bax, p21, cleaved caspase-3. The assay can be described thus: Western blot of p53, Bax, p21 and cleaved caspase-3 in RPMI8226 cells. The class given is cell-based, human. An excerpt:
(§1) Cell lysis and SDS–PAGE were as described previously. Antibodies used in this study were for active p38 MAPK and active JNK (Promega, Madison, WI), p38 MAPK/SAPK2, JNK (Upstate Biotechnology, Lake Placid, NY), p53 (Chemicon, Temecula, CA), bax, p21, cleaved caspase-3 and β-actin (Abcam Ltd., Cambridge, UK). Proteins of interest were detected using the appropriate IgG-horseradish peroxidase-linked secondary antibody (Santa Cruz Biotechnology) and enhanced chemiluminescence reagent (Amersham, Arlington Heights, IL). X-ray films were scanned on a model GS-700 Imaging Densitometer (Bio-Rad, Hercules, CA) and analyzed with Labworks 4.0 software. For quantification, blots from at least three independent experiments were used.
Fig. 4 The 7-mer induces JNK signaling to trigger p53/bax/p21^Waf1 expression in RPMI8226 cells. a and b Cell treatments were as described in Fig. 3. Cell lysates were then prepared for western blot analysis of p53, Bax, and p21. Representative blots and densitometric analyses from three independent experiments are shown. ^*P < 0.001 versus 7-mer-treated cells
For orientation: A western blot detects proteins with antibodies after separation by electrophoresis.

Another assay concerns RPMI8226 cells. The assay can be described thus: Annexin V-FITC/PI double-staining apoptosis assay in RPMI8226 cells. The following applies: 10 ng/ml VEGF + 25 μM peptide, 24 h, serum-free; early + late apoptosis; mean ± SD, three independent experiments. The format is cell-based, human. How it is done:
Cell apoptosis was examined using a TACS annexin V-FITC kit according to the manufacturer’s instructions for in situ staining. The cell numbers were monitored by counterstaining with Hoechst 33342. Afterward, apoptosis was examined and photographed by a Zeiss epifluorescence microscope (× 100, 10 fields/sample). Images were recorded on Zeiss software.
Fig. 2 The 34-mer and 7-mer induce apoptosis of RPMI8226 cells. a Fluorescence microscopy of annexin V-FITC/PI double staining. Treatment of RPMI8226 cells was as described in Fig. 1. Apoptosis was determined by annexin V-FITC staining (green dots) and double stained with propidium iodide (red dots). A representative of three independent experiments is shown. b The percentage of apoptotic cells was quantified by dividing the number of annexin V-positive cells by the total number of cells counted by phase-contrast light microscopy. Control peptide indicates cells were treated with the 5-mer. Histograms show means ± SD. ^aP < 0.005 versus peptide solvent-treated cells. ^bP < 0.0002 versus VEGF-treated cells. ^cP < 0.001 versus 34-mer-treated cells
Fig. 3 The 7-mer induces JNK signaling to trigger RPMI8226 cell apoptosis. 3 × 10^5 cells were serum starved for 24 h and then exposed to 10 ng/ml VEGF and 25 μM 7-mer for the indicated time periods. a Western blotting was performed to detect the active phosphorylated forms of JNK (p-JNK) and p38 MAPK (p-p38), shown in the upper panels. Antibodies were then stripped and the blots were re-incubated with anti-JNK and anti-p38 MAPK antibodies (lower panels), respectively, to detect the levels of total JNK and p38 MAPK. b Densitometric analyses from three independent experiments are shown. c Cell were pretreated with 10 μM SP600125 or SB203580 for 10 min and then treated as described above for 24 h and apoptosis was quantified using the annexin V-FITC apoptosis detection kit. *P < 0.0001 versus 7-mer-treated cells

The subject of assay [2] is VEGF-induced corneal neovascularization. The assay can be described thus: Mouse corneal micropocket assay. The class given is in vivo. As to conditions: C57BL/6 mice, pellet with 200 ng VEGF + 2.5 μg 7-mer, day 7. How it is done:
The assay was performed according to procedures described previously. Briefly, corneal micropockets were created in 6-week-old C57BL/6 mice with the needle of 1-ml injector. A micropellet of sucrose aluminum sulfate and hydron polymer containing 200 ng VEGF, with or without 2.5 μg 7-mer peptide, was delivered into each corneal pocket. Eyes were photographed by a slit-lamp biomicroscope on day 7 after micropellet implantation. Ingrowth of the blood vessels into the avascular cornea, towards the pellet, was scored as a positive response. The results are reported as the fraction of positive corneas of the total implanted.
Fig. 6 The effect of the 7-mer on VEGF-induced microvessel sprouting of aortic ring and corneal neovascularization. a Rat aortic ring assay. Photomicrographs of aortic ring explants after treatment for 5 days (magnification × 40). Sprouting was evaluated on a scale from 0 (no sprouts) to 3 (profuse sprouting). There was no sprouting of vessels from ex vivo aortic rings embedded in Matrigel without LSGS or VEGF. b The 7-mer inhibits VEGF-induced corneal angiogenesis in C57BL/6 mice. Representative corneas and final scoring determining the number of positive corneas per total implantations. […]

A further assay deals with p38 MAPK. The assay can be described thus: Western blot of phosphorylated p38 MAPK in RPMI8226 cells. The format is cell-based, human. The following applies: 10 ng/ml VEGF + 25 μM 7-mer, time course.
Source text: as §1
Fig. 3 The 7-mer induces JNK signaling to trigger RPMI8226 cell apoptosis. […] Antibodies were then stripped and the blots were re-incubated with anti-JNK and anti-p38 MAPK antibodies (lower panels), respectively, to detect the levels of total JNK and p38 MAPK. b Densitometric analyses from three independent experiments are shown. c Cell were pretreated with 10 μM SP600125 or SB203580 for 10 min and then treated as described above for 24 h and apoptosis was quantified using the annexin V-FITC apoptosis detection kit. *P < 0.0001 versus 7-mer-treated cells

The next assay concerns HUVECs. In words: Endothelial cell capillary-like tube formation assay. The format is cell-based, human. As to conditions: 20 ng/ml VEGF, 10 μM 7-mer, matrigel, 0.5% FBS, 6 h. Here is the method:
Cells were grown in Medium 200 with LSGS (supplement contains 1.9% fetal bovine serum, 3 ng/ml bFGF, 10 μg/ml heparin, 1 μg/ml hydrocortisone, and 10 ng/ml EGF). Culture plates were coated with 2% gelatin. Cells (passages 4–8) were cultured at 37 °C in a humidified atmosphere of 5% CO2. For peptide treatment, HUVECs were cultured in low serum (0.5% FBS) medium containing 20 ng/ml VEGF and 7-mer peptide (20 μM, unless otherwise specified).
Growth factor-reduced matrigel was pipetted into pre-chilled 24-well plates (150 μl matrigel per well) and polymerized for 45 min at 37 °C. HUVECs (4 × 10^4 per well) in low serum (0.5% FBS) medium were treated with 20 ng/ml VEGF and 7-mer (10 μM) in matrigel coated plates. After 6 h of incubation, tubular structures were photographed. Images were captured using a Cannon camera on a Zeiss inverted microscope with magnification × 40.
The experiment was repeated three times. Magnification is × 40. b The 7-mer induces HUVEC apoptosis in the presence of VEGF. Cell apoptosis was analyzed using the Annexin V-FITC Apoptosis Detection kit according to the in situ staining protocol after treatment for 16 h. Double staining with an annexin V-FITC and the fluorescent dye Hoechst 33342 was used to visualize the apoptotic cells (green) and nuclei (blue), respectively. […] The percentages of apoptotic cells were quantified. ^aP < 0.005 versus VEGF-treated cells

Setting [3] is: 7-mer for 8 h, VEGF-treated RPMI8226 cells, densitometry, three independent experiments.

On to “7-mer: PEDF Asp64-Ser70, N-acetylated, C-amidated (Ac-DLYRVRS-NH2; UniProt P36955 64-70, looked up, fragment)”, for which, in assay [1] (setting [3]), the “Bax protein level compared to solvent control” value worked out at 4.5 ± 0.40 fold, the “p21Waf1 protein level compared to solvent control” value stood at 5.5 ± 0.43 fold and the “p53 protein level compared to solvent control” value is 3.6 ± 0.39 fold. For the same substance, in assay [1] (7-mer treatment for 24 h), the “cleaved/active caspase-3” value is listed as “elevation of cleaved/active caspase-3”. Besides, the “apoptotic (annexin V+) RPMI8226 cells” value in the assay with RPMI8226 cells came to 38.6 ± 2.1%. In assay [2], the “VEGF-induced neovessels in the corneas” value is “prevented by the 7-mer”. Besides, the “Positive Corneas /Total” value in assay [2] (vehicle 10/12) was 0/8. Moreover, in the assay on p38 MAPK, the “p38 MAPK phosphorylation” value is “no significant effect on p38 MAPK phosphorylation”. Besides, the “VEGF-stimulated tube-like network of HUVECs” value in the assay with HUVECs is given as “marked decrease of the VEGF-stimulated tube-like network”.

The record behind these values is article PMC8864869, “A short peptide derived from pigment epithelial-derived factor exhibits an angioinhibitory effect” (BMC Ophthalmology, 2022).
